In data set [1] the test system is Mouse embryonic fibroblasts (MEFs), null Hras and Nras, floxed Kras. Nature of the data set: Growth inhibition of MEFs with floxed Kras locus. The data set is classed as cell-based. The settings on record: 600 nM, 6 days, vs DMSO. As to the method: In parallel, cells were treated with DMSO or 4OHT at 600 nM for 6 days. […] Cells were then lysed and treated with a pro-fluorescent caspase 3/7 substrate (rhodamine 110 bis-N-CBZ-L-aspartyl-L-gluramyl-L-valyl-aspartic acid amide) for 16 hours and measured.
All cell culture assays were incubated at 37° C., 5% CO2 in media containing Dulbecco's Modified Eagle Medium (DMEM) with 10% fetal bovine serum (FBS) and 1% penicillin-streptomycin (PS). 384-well format for EC50 determination: cells were trypsinized, counted, and seeded into 384-well plates at 1,000 cells/well. After 12-16 hours, compounds (as 50 mM stocks in DMSO) were arrayed in an 8- or 16-point dilution series in 384-well polypropylene plates. Compound solutions were transferred at a 1:5 dilution into the assay plates. After 48 hours, a 50% Alamar blue solution was added to a final concentration of 10% Alamar blue. After 6 hours of incubation, fluorescence intensity was determined using a Victor3 plate reader (Perkin Elmer) with a 535 nm excitation filter and a 590 nm emission filter. All compound measurements were performed in triplicate. For experiments performed in 6-well format, cells were trypsinized, counted, and seeded into 6-well plates at 200,000 cells per well 16 h prior to use. […] After 24 hours, cells were trypsinized and viability was determined using Trypan Blue exclusion assay. […]

A short description of a further data set: Microsomal stability. The data set is classed as in vitro ADME. Particulars: pH 7.4; mouse liver microsomes, 0.5 μM. As to the method:
Test compounds (0.5 μM) were incubated at 37° C. for up to 45 minutes in 50 mM of potassium phosphate buffer (pH 7.4) containing microsomal protein (0.5 mg/mL) and an NADPH generating system (0.34 mg/mL β-nicotinamide adenine dinucleotide phosphate (NADP), 1.56 mg/mL glucose-6-phosphate, 1.2 units/mL glucose-6-phosphate dehydrogenase). At 0, 5, 15, 30 and 45 minute intervals an aliquot was taken and quenched with acetonitrile (ACN) containing an internal standard. No-cofactor controls at 45 minutes were prepared. Following completion of the experimentation, the samples were analyzed by LC-MS/MS using a Shimadzu HPLC and an Applied Biosystem AP 14000.
(In general: Liver microsomes are vesicles of endoplasmic reticulum, rich in cytochrome P450 enzymes.)

The target in a further data set is T1, GppNHp-loaded KRASG12D (Homo sapiens, UniProt P01116, G12D).
T1 construct: made in house; host or cells: Escherichia coli BL21-Gold (DE3)
T1 sequence (P01116 1-169 isoform P01116-2 G12D): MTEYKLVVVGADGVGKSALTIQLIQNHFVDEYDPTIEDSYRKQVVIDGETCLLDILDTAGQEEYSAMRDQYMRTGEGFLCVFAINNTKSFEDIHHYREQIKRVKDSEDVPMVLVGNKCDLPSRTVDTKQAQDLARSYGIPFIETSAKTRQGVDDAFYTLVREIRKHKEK
The data set is described as follows: Microscale thermophoresis, lysine NT-647-labeled GppNHp-loaded KRAS^G12D. The class given is binding. Particulars: MST, GppNHp-bound KRAS^G12D, Table 6; read-out: KD. The protocol: Microscale Thermophoresis
KRAS^G12D (250 μM) in 25 mM HEPES, 100 mM sodium chloride, 2 mM TCEP with 20 mM EDTA and 1 mM GppNHp was shaken at 220 rpm at 30° C. to remove the endogenous nucleotide, The solution was placed on ice for 2 minutes prior to the addition of 65 mM MgCl2. After an additional 10 minutes incubation on ice, 200 uL of a 10 uM solution of KRAS^G12D was combined with 200 uL of a 20 uM solution of NT-647-NHS-ester dye (from a 652.4 μM stock). The protein/dye mixture was rotated at 4° C. for 30 minutes, before being separated from the excess dye and buffer exchanged into 25 mM Tris, 100 mM sodium chloride, 2 mM TCEP, and 5 mM MgCl2 via a nap-5 column. The test compounds were arrayed across a 16-point dilution series consisting of 1.5% DMSO with 25 mM Tris, 100 mM NaCl, 2 mM TCEP, 5 mM MgCl2 and 0.05% tween-20. Thermophoretic movement of the fluorescently labeled protein with the inhibitors was performed using a Monolith NT.115 (Nanotemper Technologies). RALA and RHOA were purchased commercially from Abcam (RALA CN:ab102555, RHOA CN:ab101594).
In another set of experiments, the top D38-A59 two-site multivalent compounds were evaluated by a RAS pulldown using the RAS binding domain of CRAF (the top two hits are shown in FIG. 14D). This abrogation of binding between RAS and its effector protein was also evident in the RAS-RALGDS interaction (FIG. 14E). To quantify the binding of the two-site compounds to RAS, MST was performed again using lysine NT-647-labeled, GppNHp-loaded KRAS^G12D. […] The third (Y32) site was extended into (compound 34MEW95) using this scaffold.
Docking scores and dissociation constants for binding to GppNHp-bound KRAS^G12D (PDB:4DSN) were measured as set forth above for additional 2- and 3-site compounds by microscale thermophoresis.

In a further data set the target is T2, KRAS^G12D⋅BODIPY-GTP (Homo sapiens, UniProt P01116, G12D).
T2 construct: made in house; host or cells: Escherichia coli BL21-Gold (DE3)
T2 sequence (P01116 1-169 isoform P01116-2 G12D): as above
Nature of the data set: Nucleotide displacement assay with BODIPY-GTP (fluorescence polarization). The settings on record: 2.5 μM KRAS^G12D⋅BODIPY-GTP, 12 hours. The data set is classed as binding. The protocol:
Nucleotide Displacement Assay
To investigate whether compounds were binding to the same site as GTP, a fluorescent polarization assay was implemented using fluorescently-labeled BODIPY-GTP as a probe. When BODIPY-GTP is free in solution, it has a low polarization. However, when BODIPY-GTP is bound to K-Ras protein, the polarization intensity is high. K-Ras G12D bound to BODIPY-GTP was incubated with different concentrations of ligand or unlabeled GTP or GDP in buffer containing 25 mM Tris-HCl, pH 8, 100 mM NaCl, 5 mM MgCl2, 1 mM EDTA, and 1 mM TCEP. The final concentration of K-Ras G12D bound to BODIPY-GTP in each well was 2.5 μM. The samples were incubated at 25° C. for 12 hours with gentle shaking to allow for the slow intrinsic nucleotide release reaction to take place. The change in fluorescence was measured on a Victor3 plate reader (Perkin Elmer) in 384-well black low-volume plates (Corning, Inc.). The BODIPY-GTP fluorophore was excited at 485 nm and emission was monitored at 535 nm.
(In fluorescence polarisation assays a small probe gives low polarisation when free and higher when bound to something large.)

In data set [2] the test system is caspases 3 and 7 in HT-1080 (NRAS^Q61K) cells. The data set is described as follows: Caspase 3/7 activation assay. The data set is classed as cell-based. The settings on record: staurosporine 5 μM, 24 hours. The protocol:
Caspase 3/7 Activation Assay
HT-1080 cells were seeded into 384-well plates at 1,000 cells/well. After 12-16 hours, compounds (as 50 mM stocks in DMSO) were arrayed in a dilution series in 384-well polypropylene plates. Compound solutions were transferred at a 1:5 dilution into the assay plates for a total volume of 40 μL. After 24 hours, 8 μL of a 1:100 solution of rhodamine 110 bis-(N-CBZ-1-aspartyl-1-glutamyl-1-valyl-aspartic acid amide) to lysis buffer (APO-1, Promega) was added and the plate was wrapped in aluminum foil and incubated at room temperature for 16 hours. Fluorescence intensity was then determined using a Victor3 plate reader (Perkin Elmer) with a 490 nm excitation filter and a 535 nm emission filter. A viability curve was performed in parallel with the same incubation time using the procedure described in the “cell viability assays” section.

Where only a bound is given, the exact number is not on record here.

The results in this text go back to patent publication US9926293B2, “Multivalent RAS binding compounds” (THE TRUSTEES OF COLUMBIA UNIVERSITY IN THE CITY OF NEW YORK, priority 2014, dated 2018).

In turn, “4-hydroxytamoxifen [Compound 4OHT, reference compound]” gave a growth inhibition in data set [1] of 91%.

The half-life is the time needed for the level to fall by half in the phase considered. A low value points to fast loss. Take `CCOc1ccc2ccc(=O)oc2c1` [7-ethoxycoumarin, reference compound]: in “Microsomal stability”, the half-life at 0.5 μM amounted to 3.9 min.

As a reminder, the Kd is the equilibrium constant for the complex coming apart. For `O=C(NCCCn1cc(-c2c(C(F)(F)F)cccc2C(F)(F)F)c2cc(CN3CCN(Cc4cc(C(F)(F)F)cc(C(F)(F)F)c4)CC3)ccc21)C1CNCCN1` (stereo not shown) [Compound 32MEW56, N-(3-(5-((4-(3,5-bis(trifluoromethyl)benzyl)piperazin-1-yl)methyl)-3-(2,6-bis(trifluoromethyl)phenyl)-1H-indol-1-yl)propyl)piperazine-2-carboxamide], on GppNHp-loaded KRASG12D, the Kd is over 10000 µM.

For `COc1ccccc1-c1cn(CCCNC(=O)C2(N)CCNCC2)c2cccc(CN3CCN(CCOc4ccc(Cl)cc4)CC3)c12` [Compound 34MEW45, 4-amino-N-(3-(4-((4-(2-(4-chlorophenoxy)ethyl)piperazin-1-yl)methyl)-3-(2-methoxyphenyl)-1H-indol-1-yl)propyl)piperidine-4-carboxamide], the Kd on GppNHp-loaded KRASG12D was 1350 µM.

In the case of `O=C(NCCCn1cc(-c2cccc(F)c2)c2c(CN3CCN(CCOc4ccc(Cl)cc4)CC3)cccc21)C1(NCc2ccc(OCc3ccc(F)cc3)c(Cl)c2)CCNCC1` [Compound 35MEW12, 4-((3-chloro-4-((4-fluorobenzyl)oxy)benzyl)amino)-N-(3-(4-((4-(2-(4-chlorophenoxy)ethyl)piperazin-1-yl)methyl)-3-(3-fluorophenyl)-1H-indol-1-yl)propyl)piperidine-4-carboxamide], the dissociation constant (Kd) at GppNHp-loaded KRASG12D was determined as 36 µM.

`COc1cc(CN2CCN(Cc3ccc4c(c3)c(-c3ccc(OC)cc3OC)cn4CCCNC(=O)C3CNCCN3)CC2)cc(OC)c1` (stereo not shown) [Compound 36MEW3, N-(3-(5-((4-(3,5-dimethoxybenzyl)piperazin-1-yl)methyl)-3-(2,4-dimethoxyphenyl)-1H-indol-1-yl)propyl)piperazine-2-carboxamide]: the equilibrium dissociation constant (Kd) at GppNHp-loaded KRASG12D was 230 µM.

For the compound `COc1cc(COc2ccc(CNC3(C(=O)NCCCn4cc(-c5ccc(OC(F)(F)F)cc5)c5cc(CN6CCN(Cc7c(Cl)cccc7Cl)CC6)ccc54)CCNCC3)cc2OC)cc(OC)c1` [Compound 43MEW63], the Kd on GppNHp-loaded KRASG12D was 26 µM.

`O=C(NCCCn1cc(-c2ccc(OC(F)(F)F)cc2)c2cc(CN3CCN(Cc4c(Cl)cccc4Cl)CC3)ccc21)C1(NCc2ccc(OCc3cc(C(F)(F)F)cc(C(F)(F)F)c3)cc2)CCNCC1` [Compound 43MEW65, 4-((4-((3,5-bis(trifluoromethyl)benzyl)oxy)benzyl)amino)-N-(3-(5-((4-(2,6-dichlorobenzyl)piperazin-1-yl)methyl)-3-(4-(trifluoromethoxy)phenyl)-1H-indol-1-yl)propyl)piperidine-4-carboxamide]: the Kd at GppNHp-loaded KRASG12D was determined as 7.9 µM.

On to `CC(C)Oc1ccccc1-c1ccc(CNC2(C(=O)NCCCn3cc(-c4ccc(OC(F)(F)F)cc4)c4cc(CN5CCN(Cc6c(Cl)cccc6Cl)CC5)ccc43)CCNCC2)nc1` [Compound 43MEW73, N-(3-(5-((4-(2,6-dichlorobenzyl)piperazin-1-yl)methyl)-3-(4-(trifluoromethoxy)phenyl)-1H-indol-1-yl)propyl)-4-(((5-(2-isopropoxyphenyl)pyridin-2-yl)methyl)amino)piperidine-4-carboxamide], for which, on GppNHp-loaded KRASG12D, the equilibrium dissociation constant (Kd) was found to be 24 µM.

Regarding `Nc1nc2c(ncn2[C@@H]2O[C@H](COP(=O)(O)OP(=O)(O)O)[C@@H](O)[C@H]2O)c(=O)[nH]1` [GDP], the “displacement of BODIPY-GTP” value at KRAS^G12D⋅BODIPY-GTP is “can displace”.

For `Nc1nc2c(ncn2[C@@H]2O[C@H](COP(=O)(O)OP(=O)(O)OP(=O)(O)O)[C@@H](O)[C@H]2O)c(=O)[nH]1` [GTP], the “displacement of BODIPY-GTP” value at KRAS^G12D⋅BODIPY-GTP is “can displace”.

In the case of `CN[C@@H]1C[C@H]2O[C@@](C)([C@@H]1OC)n1c3ccccc3c3c4c(c5c6ccccc6n2c5c31)C(=O)NC4` [staurosporine, reference compound], the “fluorescence of caspase 3/7 substrate” value in data set [2] (31MEW44 5 μM, 34MEW43 10 μM, 34MEW95 5 μM) is on record as “Increased fluorescence”; in data set [2] (31MEW44 2.5 and 5 μM), “Increased fluorescence”.
